Experimental data published in article PMC7002685, “Inhibition of vascular calcification by inositol phosphates derivatized with ethylene glycol oligomers” (Nature Communications, 2020).
pIC50: −log10 of the molar value. Several values for one entry are separate records, joined by “and”; a condition that tells them apart may be missing. Identical values can stand only once. One block for each compound: values may come before it.

How the values were obtained:
[1] = test system: transformation of CPP1 to CPP2 in pooled human serum; experiment: In vitro serum calcification propensity (T50) screening assay; type: biochemical; set-up: key to T50: T50 in minutes (time to 50% CPP phase transition); conditions: for T50: one value per experiment; for activity/unit mass: mean c350 x mw (Na salt); for concentration upon which a T50 of 350 min is reached (c350), mean: mean of n experiments; for concentration upon which a T50 of 350 min is reached (c350), single experiment: one value per experiment (lab journal reference E05-E40)
Method: The compounds were ranked for calcification inhibition activity using a nanoparticle-based test, developed for risk stratification, which measures the propensity for calcification in patient serum. […] The time, after which 50% of CPP phase transition occurred (T50), was assessed by time-resolved spectrophotometry at 550 nm (Supplementary Fig. 1a).
The screening assay was performed as described previously. In brief, pooled human serum (H4522, Sigma-Aldrich) stored at −20 °C was thawed at 37 °C, centrifuged (10,000 × g, and 4 °C, 30 min) (5427R, Eppendorf, Switzerland), and sterile filtered (0.22 μm filter, Millipore, Merck KGaA) to remove potential cryoprecipitates (cleared human serum). The calcium solution was 40 mM CaCl2 (102382, Merck KGaA) in HBS, pH 7.4 (RT) (100 mM HEPES (H3375, Sigma-Aldrich) and 140 mM NaCl (1734712, Fisher Scientific, Hampton, NH, USA)). […] All salt solutions and buffers were double sterile filtered (0.22 µm) and pre-warmed to 37 °C prior to use. […] The plate was sealed with an adhesive film and the absorption at 550 nm was measured every 3 min with 1 min in-between shaking for a total of 300 cycles at 37 °C using the infinite M200 microplate reader (Tecan, Männedorf, Switzerland). An A550 vs. time graph was generated and T50 (min) (time at half-maximum transition from CPP1 to CPP2) values were derived by sigmoidal curve fit using Prism 8 (nonlinear regression in the log(agonist) vs. response–variable slope (four parameter mode) using the robust fit fitting method, GraphPad Software, San Diego, CA, USA). Activities between compounds were compared by generating a T50 (min) vs. concentration (µM) graph, calculating nonlinear regression and deriving the concentration required to delay T50 to 350 min (c350) using a standard equation for the dose–response curve, Eq. (1), whereby x = [compound], y = time (min), bottom = baseline response, top = maximum response, T50 = [drug] that leads to half-maximum response, and the hill slope is a factor that describes the steepness of the curve.1 y= bottom+top - bottom/1+T50/x^hillslope.

[2] = Serum calcification propensity assay after 4.5 h incubation in enzymatically active human serum; conditions: compound at c350 concentration, 37 °C; individual donors, Fig. 2e
CPP2 = experiment: Competitive 18F-NaF binding assay on CPPs; set-up: species or system human
Method: A ^18F-NaF-based competitive binding assay was developed to indirectly assess the inhibitor affinity (IC50) to CPPs. The uptake mechanism of ^18F-NaF, a marker of micro-calcification activity by chemisorption onto hydroxyapatite crystals, is contingent on the rapid exchange of hydroxyl (OH^−) groups present on the hydroxyapatite surface (Ca5(PO4)3(OH)) by ^18F^− to form fluoroapatite (Ca5(PO4)3^18F)[34],[54].
Triplicate aliquots of CPP2s (20 µg Ca/mL) in 100 μL assay buffer (100 mM HBS, pH 7.4 (RT)) were incubated for 1 h at RT in the presence of increasing concentrations of compounds in 50 μL Milli-Q water and ^18F-NaF (1 nM) in 50 μL assay buffer, resulting in a total incubation volume of 200 μL (^18F-NaF was prepared using a FASTlab synthesizer (GE Healthcare, Little Chalfont, UK) and commercially available ^18F-NaF cassettes (GE Healthcare)). Maximum radiotracer binding was determined by incubating CPP2s with ^18F-NaF (1 nM) only. The reaction was terminated by rapid filtration through a SOLAμ™ SPE plate (HRP 2 mg/mL 96-well plate, 22 μm; Thermo Fisher Scientific). SPE individual column matrices were washed twice rapidly in assay buffer and radioactivity on the filters determined by an automatic gamma counter (Wizard2 Gamma Counter, Perkin Elmer, Waltham, MA, USA). […] IC50 is the concentration of […] that gives a response half way between the bottom and top parts of the curve. ^18F-NaF micro-PET/computed tomography (micro-PET/CT) was employed for ex vivo analysis of (OEG2)2-IP4’s engagement to target calcified human tissue explants, as described previously. […] Following incubations, samples were washed twice in 0.1 M PBS (1 min per wash) and mounted on a Petri dish for micro-PET/CT imaging (nanoPET/CT, Mediso, Budapest, Hungary). In total, seven samples from the femoral arteries of three patients with ischemic peripheral disease and three samples from native aortic valves of three patients undergoing valve replacement surgery were used. All samples were collected at the time of surgery and stored in 4% paraformaldehyde at RT until further use. All patients gave their written, informed consent. All procedures had local ethical approval (06/S0703/110, 12/WS/0227, 09/S0703/118, and 12/NW/0036). All studies were approved by East and West Scotland Research Ethics Committees, and all experiments were conducted according to the principles expressed in the Declaration of Helsinki.

SMILES: COCCOCCOCCOCCOCCOCCOCCOCCOCCOCCOCCO[C@@H]1[C@@H](OP(=O)(O)O)[C@H](OCCOCCOCCOCCOCCOCCOCCOCCOCCOCCOCCOC)[C@@H](OP(=O)(O)O)[C@@H](OP(=O)(O)O)[C@H]1OP(=O)(O)O [(OEG11)2-IP4, 4,6-Di-O-(methoxy-undecaethyleneglycol)-myo-inositol-1,2,3,5-tetrakis(phosphate)]
T50 ([1]; concentration 0.3 μM): 225.5 and 216.3 and 217.233
T50 ([1]; concentration 1 μM): 254.967 and 243.067 and 240.833
T50 ([1]; concentration 3 μM): 330.833 and 306.033 and 295.1
T50 ([1]; concentration 5 μM): 429.233 and 399.933 and 420.733
fold greater molar activity in delaying serum calcification propensity than IP6 ([1]; from c350): ~10 fold
activity/unit mass [1]: 6.28 mg/L
concentration upon which a T50 of 350 min is reached (c350), mean [1]: 3.8 µM
concentration upon which a T50 of 350 min is reached (c350), single experiment [1]: 3.4 µM and 3.9 µM
ΔT50 after 4.5 h vs 0 h incubation in enzymatically active human serum [2]: -7 min and 2 min and 28 min and -24 min

pIC50 (CPP2; CPP2 20 µg Ca/mL, 18F-NaF 1 nM, 1 h RT, read-out: IC50 (reduction of 18F binding to CPP)): 6.05
18F-NaF percentage binding to CPP2 (CPP2; concentration 0.75 (unit not given)): 116.838% and 100.543% and 117.872%
18F-NaF percentage binding to CPP2 (CPP2; concentration 2.5 (unit not given)): 108.056% and 108.706% and 117.126%
18F-NaF percentage binding to CPP2 (CPP2; concentration 7.5 (unit not given)): 96.3113% and 120.411% and 97.661%
18F-NaF percentage binding to CPP2 (CPP2; concentration 25 (unit not given)): 95.6416% and 106.619%
18F-NaF percentage binding to CPP2 (CPP2; concentration 75 (unit not given)): 102.247% and 106.699% and 103.897%
18F-NaF percentage binding to CPP2 (CPP2; concentration 250 (unit not given)): 99.9294% and 104.809% and 85.4465%
18F-NaF percentage binding to CPP2 (CPP2; concentration 1750 (unit not given)): 35.8884% and 43.4211% and 42.6767%
18F-NaF percentage binding to CPP2 (CPP2; concentration 2500 (unit not given)): 62.647% and 51.2379% and 44.8192%
18F-NaF percentage binding to CPP2 (CPP2; concentration 7500 (unit not given)): 62.7542% and 48.4658% and 45.2944%
18F-NaF percentage binding to CPP2 (CPP2; concentration 25000 (unit not given)): 44.4078% and 32.6852% and 32.8795%
18F-NaF percentage binding to CPP2 (CPP2; concentration 75000 (unit not given)): 35.0722% and 24.2405% and 29.2905%
18F-NaF percentage binding to CPP2 (CPP2; concentration 250000 (unit not given)): 26.7145% and 19.4967% and 18.0105%
18F-NaF percentage binding to CPP2 (CPP2; concentration 750000 (unit not given), replicates Fig. 2c): 36.7136% and 30.5284% and 26.7151%
SMILES: NCCCC(O)(P(=O)(O)O)P(=O)(O)O [Alendronate, alendronate]
T50 ([1]; concentration 0.3 μM): 213.8 and 221.6 and 208.733 and 230.4 and 221.333 and 196.833
T50 ([1]; concentration 1 μM): 222.967 and 230.933 and 225.333 and 238.6 and 229.833 and 230.667
T50 ([1]; concentration 3 μM): 261.733 and 253 and 230.467 and 264.833 and 255.1 and 255.367
T50 ([1]; concentration 10 μM): 345.567 and 345.233 and 327.433 and 380.1 and 360.1 and 348.633
T50 ([1]; concentration 30 μM): 770.3 and 707.4
activity/unit mass [1]: 2.69 mg/L
concentration upon which a T50 of 350 min is reached (c350), mean [1]: 9.9 µM
concentration upon which a T50 of 350 min is reached (c350), single experiment [1]: 9.9 µM and 10.3 µM and 8.3 µM and 9.4 µM and 10.2 µM
